Test results reported in the NIST ThermoML archive (doi:10.1016/j.tca.2009.07.006).

Key:
[1] = molar heat capacity at constant pressure; xn = mol fraction of the nth substance listed; conditions: 101 kPa, Liquid, Small sample (50 mg) DSC
[2] = xn = mol fraction of the nth substance listed; conditions: 101 kPa, Liquid

CCOS(=O)(=O)[O-].CCn1cc[n+](C)c1 [1-ethyl-3-methylimidazolium ethyl sulfate] + O
Conditions	electrical conductivity, x1 = 0.2 [S/m]	electrical conductivity, x1 = 0.4 [S/m]	electrical conductivity, x1 = 0.6 [S/m]	electrical conductivity, x1 = 0.8 [S/m]	molar heat capacity at constant pressure, x1 = 0.2 [J/K/mol]	molar heat capacity at constant pressure, x1 = 0.4 [J/K/mol]	molar heat capacity at constant pressure, x1 = 0.6 [J/K/mol]	molar heat capacity at constant pressure, x1 = 0.8 [J/K/mol]
[1], 303.2 K	–	–	–	–	146.4	218.8	290	359.1
[1], 308.2 K	–	–	–	–	147.5	220.3	291.4	360.8
[1], 313.2 K	–	–	–	–	148.7	221.6	292.8	362.3
[1], 318.2 K	–	–	–	–	149.5	223.1	294.4	364
[1], 323.2 K	–	–	–	–	150.8	224.7	295.9	365.7
[1], 328.2 K	–	–	–	–	151.9	226.1	297.5	367.5
[1], 333.2 K	–	–	–	–	153.2	227.8	298.9	369.3
[1], 338.2 K	–	–	–	–	154.7	229.4	300.6	371.5
[1], 343.2 K	–	–	–	–	155.9	231	302.2	373.2
[1], 348.2 K	–	–	–	–	157.2	232.8	304	375.5
[1], 353.2 K	–	–	–	–	158.4	234.6	305.8	377.5
[2], 293.2 K	2.17	1.23	0.74	0.466	–	–	–	–
[2], 298.2 K	2.53	1.44	0.881	0.569	–	–	–	–
[2], 303.2 K	2.95	1.695	1.05	0.696	–	–	–	–
[2], 308.2 K	3.387	1.95	1.25	0.837	–	–	–	–
[2], 313.2 K	3.85	2.243	1.45	0.991	–	–	–	–
[2], 318.2 K	4.34	2.563	1.67	1.159	–	–	–	–
[2], 323.2 K	4.86	2.9	1.91	1.342	–	–	–	–
[2], 328.2 K	5.4	3.257	2.15	1.54	–	–	–	–
[2], 333.2 K	5.93	3.617	2.41	1.746	–	–	–	–
[2], 338.2 K	6.5	3.997	2.69	1.94	–	–	–	–
[2], 343.2 K	7.07	4.393	2.99	2.173	–	–	–	–
[2], 348.2 K	7.64	4.793	3.28	2.417	–	–	–	–
[2], 353.2 K	8.24	5.207	3.62	2.673	–	–	–	–

CCn1cc[n+](C)c1.O=S(=O)([O-])C(F)(F)F [1-ethyl-3-methylimidazolium trifluoromethanesulfonate] + O
Conditions	electrical conductivity, [2] [S/m]	molar heat capacity at constant pressure, [1] [J/K/mol]
293.2 K, x1 = 0.2	3.437	–
293.2 K, x1 = 0.4	2.35	–
293.2 K, x1 = 0.6	1.64	–
293.2 K, x1 = 0.8	1.17	–
298.2 K, x1 = 0.2	3.927	–
298.2 K, x1 = 0.4	2.67	–
298.2 K, x1 = 0.6	1.86	–
298.2 K, x1 = 0.8	1.34	–
303.2 K, x1 = 0.1	–	102.6
303.2 K, x1 = 0.2	4.47	133.3
303.2 K, x1 = 0.4	3.05	197.5
303.2 K, x1 = 0.6	2.12	260.1
303.2 K, x1 = 0.8	1.56	320.1
303.2 K, x1 = 0.9	–	351
308.2 K, x1 = 0.1	–	103
308.2 K, x1 = 0.2	5.037	134.1
308.2 K, x1 = 0.4	3.46	198.7
308.2 K, x1 = 0.6	2.42	261.6
308.2 K, x1 = 0.8	1.79	321.9
308.2 K, x1 = 0.9	–	352.7
313.2 K, x1 = 0.1	–	103.4
313.2 K, x1 = 0.2	5.613	134.7
313.2 K, x1 = 0.4	3.87	199.9
313.2 K, x1 = 0.6	2.73	263.2
313.2 K, x1 = 0.8	2.01	323.7
313.2 K, x1 = 0.9	–	354.8
318.2 K, x1 = 0.1	–	103.8
318.2 K, x1 = 0.2	6.213	135.5
318.2 K, x1 = 0.4	4.31	201.3
318.2 K, x1 = 0.6	3.047	264.5
318.2 K, x1 = 0.8	2.27	325.4
318.2 K, x1 = 0.9	–	356.7
323.2 K, x1 = 0.1	–	104.3
323.2 K, x1 = 0.2	6.837	136.4
323.2 K, x1 = 0.4	4.77	202.4
323.2 K, x1 = 0.6	3.393	266
323.2 K, x1 = 0.8	2.55	327.3
323.2 K, x1 = 0.9	–	358.4
328.2 K, x1 = 0.1	–	105
328.2 K, x1 = 0.2	7.47	137.1
328.2 K, x1 = 0.4	5.24	203.8
328.2 K, x1 = 0.6	3.757	267.6
328.2 K, x1 = 0.8	2.84	329.1
328.2 K, x1 = 0.9	–	360.2
333.2 K, x1 = 0.1	–	105.5
333.2 K, x1 = 0.2	8.113	138
333.2 K, x1 = 0.4	5.72	205.2
333.2 K, x1 = 0.6	4.127	269.1
333.2 K, x1 = 0.8	3.14	331.1
333.2 K, x1 = 0.9	–	362
338.2 K, x1 = 0.1	–	106.1
338.2 K, x1 = 0.2	8.76	138.8
338.2 K, x1 = 0.4	6.22	206.4
338.2 K, x1 = 0.6	4.513	270.9
338.2 K, x1 = 0.8	3.46	332.7
338.2 K, x1 = 0.9	–	364
343.2 K, x1 = 0.1	–	106.4
343.2 K, x1 = 0.2	9.413	139.8
343.2 K, x1 = 0.4	6.71	207.7
343.2 K, x1 = 0.6	4.903	272.3
343.2 K, x1 = 0.8	3.78	334.6
343.2 K, x1 = 0.9	–	365.9
348.2 K, x1 = 0.1	–	107
348.2 K, x1 = 0.2	10.05	140.6
348.2 K, x1 = 0.4	7.22	208.9
348.2 K, x1 = 0.6	5.307	273.8
348.2 K, x1 = 0.8	4.13	336.4
348.2 K, x1 = 0.9	–	368
353.2 K, x1 = 0.1	–	107.5
353.2 K, x1 = 0.2	10.71	141.5
353.2 K, x1 = 0.4	7.75	210.1
353.2 K, x1 = 0.6	5.743	275.5
353.2 K, x1 = 0.8	4.48	338.2
353.2 K, x1 = 0.9	–	369.8
